US9074016B2, “G protein-related kinase mutants in essential hypertension” (priority 1998, dated 2015)
“Also recorded” adds a separate entry of the source.

Tests used:
[1] = tested on: GRK activity in renal proximal tubule cells; assay: GRK activity (phosphorylation of rhodopsin) in extracts of renal proximal tubule cells; format: cell-based, human
Excerpt: Human kidneys were obtained as fresh surgical specimens from patients who had unilateral nephrectomy due to renal carcinoma. The patient records of the subjects were reviewed and classified into those with either normal blood pressure (n=9) or essential hypertension (n=14). Subjects with systolic blood pressures less than 140 mm Hg and diastolic blood pressures less than 90 mm Hg were considered normotensive. Subjects with systolic blood pressures equal to or greater than 140 mm Hg or diastolic blood pressures equal to or greater than 90 mm Hg and/or on antihypertensive medications were considered hypertensive. […]
GRK activity was measured according to Benovic, Methods Enzymol. […] The gels were subjected to autoradiography, and the phosphorylated rhodopsin was quantified using both densitometry and radioactive counting of the excised bands at the appropriate size. GRK activity was also measured in the presence or absence of a GRK isoform antibody.

D1 receptor [2] = target: T1, D1 receptor (Homo sapiens, UniProt P21728); assay: Serine phosphorylation of D1 receptor (immunoprecipitation / anti-phosphoserine immunoblot) in renal proximal tubule cells; format: cell-based; conditions: normotensive subjects
T1 construct: endogenous in cells; host or cells: renal proximal tubule cells in culture from normotensive and hypertensive human subjects
T1 sequence (P21728 whole entry): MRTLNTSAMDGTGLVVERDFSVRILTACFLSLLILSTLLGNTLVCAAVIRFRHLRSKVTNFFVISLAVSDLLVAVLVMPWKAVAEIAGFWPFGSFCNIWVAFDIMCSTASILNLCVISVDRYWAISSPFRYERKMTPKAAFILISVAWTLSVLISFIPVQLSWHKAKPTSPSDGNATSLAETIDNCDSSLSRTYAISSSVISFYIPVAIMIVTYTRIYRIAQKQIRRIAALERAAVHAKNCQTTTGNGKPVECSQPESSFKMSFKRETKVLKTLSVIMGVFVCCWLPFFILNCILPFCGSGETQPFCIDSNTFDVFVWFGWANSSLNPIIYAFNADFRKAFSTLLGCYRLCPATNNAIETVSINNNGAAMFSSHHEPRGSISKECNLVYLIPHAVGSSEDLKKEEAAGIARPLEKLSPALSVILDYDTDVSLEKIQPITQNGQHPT
Procedure: Proximal tubule cells were incubated with vehicle, fenoldopam, sense, scrambled or antisense propyne/phosphorothioate oligonucleotides (5 nM) as described above. The membranes were lyzed with ice cold lysis buffer (PBS with 1% NP40, 0.5% sodium deoxycholate, 0.1% SDS, 1 mM EDTA, 1 mM EGTA, 1 mM sodium vanadate, 1 mM NaF, 1 mM PMSF, 10 μg/ml aprotinin and 10 μg/ml leupeptin). The lysates were incubated with IgG-purified anti D1 receptor antibody on ice for 1 hr and protein-A agarose for 12 hrs with rocking at 4° C. The proteins separated by SDS-polyacrylamide gel electrophoresis were electrophoretically transferred onto nitrocellulose membranes. The transblot sheets blocked with 5-10% nonfat dry milk in 10 mM Tris-HCl, pH 7.5, 150 mM NaCl, and 0.1% Tween-20 were incubated with diluted affinity-purified polyclonal anti-phosphoserine antibody (Zymed Lab, San Francisco, Calif.); Sanada, et al., supra. In some cases, the cells were labeled with ^32P and immunoprecipitated with anti D1 receptor antibody. The autoradiograms and immunoblots, visualized with ECL system (Amersham, Arlington Heights, Il) were quantified by densitometry. Sanada, et al., supra.

D1 receptor [3] = assay: cAMP production in CHO cells transfected with D1 receptor and GRK4γ; format: cell-based
Procedure: The cells were washed twice with Dulbecco's phosphate buffered saline (D-PBS), after which 1 mM 3-isobutyl-1-methyl-xanthine was added to each well. The cells were incubated at 37° C. for 30 minutes with or without drugs: dopamine and the D1-like receptor agonist, fenoldopam, the D1-like receptor antagonist, SCH23390 (Research Biochemicals International, Natick, Mass.), and forskolin (Sigma Chemical Co., St. Louis, Mo.). Then, the cells were washed twice with D-PBS and frozen at −80° C. and the cells were further lysed with 0.1N HCl. cAMP concentration was measured by radioimmunoassay. […] Protein concentration was measured with the BCA protein assay kit (Pierce Chem. Co., Rockford, Ill.).
The rat D1 (rD1) or human D1 (hD1) receptor cDNA was subcloned in the expression vector pPUR (Clontech, Palo Alto, Calif.) or pcDNA3.1/Zeo (Invitrogen, Carlsbad, Calif.), respectively, between EcoRland XbaI sites. The resulting constructs were used to stably transfect CHO cells expressing the pTet-Off regulator plasmid (Clontech, Palo Alto, Calif.) using calcium phosphate. […] GRK4γ and GRK4δcDNAs, obtained from RT/PCR of mRNA from human kidney cortex were subcloned into a pTet-Off response plasmid (pTRE-rD1 or pTRE-hD1 and pTK-Hyg mixed in a 20:1 ratio, respectively) (Clontech, Palo Alto, Calif.).
GRK4δ was used for comparison.

[4] = tested on: D1 receptor / adenylyl cyclase coupling in renal proximal tubule cells; assay: cAMP accumulation in renal proximal tubule cells; format: cell-based, human; conditions: normotensive versus hypertensive subjects
Procedure: Cultures of renal proximal tubule cells from histologically-verified normal kidney sections (5×10^5 cells/well in 24 well plastic plates coated with 0.075% Type I collagen) were incubated at 37° C. in […] and grown in a serum-free medium consisting of a 1:1 mixture of Dulbecco's Modified Eagle's medium and Ham's F12 medium supplemented with selenium (5 ng/ml), insulin (5 μg/ml), transferrin (5 μg/ml), hydrocortisone (36 ng/ml), triiodothyronine (4 pg/ml), and epidermal growth factor (10 ng/ml). When sub-confluent (90-95%), the cells were sub-cultured (passages 6-8) for use in experimental protocols using trypsin-EDTA (0.05%, 0.02%). The culture conditions are conducive for growth of human renal proximal tubules that retain characteristics of renal proximal tubule cells, Sanada, et al., J. Invest. Med. 45:277 A (1997).
The cells were washed twice with Dulbecco's phosphate buffered saline (D-PBS), after which 1 mM 3-isobutyl-1-methyl-xanthine was added to each well. […] Then, the cells were washed twice with D-PBS and frozen at −80° C. and the cells were further lysed with 0.1N HCl. cAMP concentration was measured by radioimmunoassay. […] Protein concentration was measured with the BCA protein assay kit (Pierce Chem. Co., Rockford, Ill.). […]

SMILES: Oc1ccc(C2CNCCc3c2cc(O)c(O)c3Cl)cc1 (centres unmarked) [fenoldopam]
- effect on GRK activity, assessed by the phosphorylation of rhodopsin ([1]; renal proximal tubule cells from hypertensive subjects): increased GRK activity
- effect on GRK activity, assessed by the phosphorylation of rhodopsin ([1]; renal proximal tubule cells from normotensive subjects): had no effect on GRK activity; also recorded: failed to increase GRK activity
- quantity of serine-phosphorylated D1 receptor (D1 receptor [2]): increased the quantity of serine-phosphorylated D1 receptor
- selectivity of action on cAMP production (D1 receptor [3]): selective for the D1 receptor
- cAMP accumulation [4]: increased cAMP accumulation to a greater extent in renal proximal tubule cells from normotensive than from hypertensive subjects
